Measured values published in US20260275279A1, “THYROCYTES AND USES THEREOF” (LifeNet Health, priority 2023, published 2026).
Like-named read-outs stand apart in the source and are kept apart here.

Experiments:
T3/T4 synthesis = experiment: Example 10 3D culture TDC screening, T3/T4 synthesis by ELISA and LC-MS/MS; format: cell-based, human
Method: For TDC Screening, these procedures were followed: • Prepare the Plate by adding 50 μL of 10 mg/ml of Matrigel, then polymerize the Matrigel at 37° C. for 1 hr. • Thaw the thyrocytes in 37° C. water bath. • Resuspend the cells in humanized medium (h7H). • Seed the cells at the optimal seeding density, 7,500 cells per 0.32 cm2. • Culture the cells in h7H medium. • Exchange the medium on Day 2, 5, 7, 9 and 12. • Start stimulating the cells with activators (e.g., bTSH, hTSH, M22, K!-18, ML-109) on Day 2 • Treatment with the activator is between Day 2-14 • Compound treatment starts on Day 9. • 8 doses: Concentrations (10^−10 to 10^−4M) • Serial dilutions were made in DMSO (Dilution factor 1:1000) • Compounds were added to the media • Day 12: Refresh media with the compound • Day 14: Collect the supernatant for the T4 analysis by ELISA and LC-MS/MS.

T4 synthesis = experiment: Reference chemical evaluation: inhibition of T4 synthesis in 3D microtissue cultures; format: cell-based, human; settings: for effect on T4 levels: 0.0001 to 100 μM; for IC50: 120-h treatment days 9-14, 1 mIU/mL bovine TSH, 7,500 cells/well, read-out: Average half-maximal inhibitory concentrations (IC50), T4 synthesis
Method: 3D cultures with cell seeding density of 7,500 cells/well were treated with 1 mIU/mL bovine TSH on days 2, 5, 7, 9, and 12. For each studied compound, cells were dosed on days 9 and 12 with concentrations ranging from 0.0001 to 100 μM across a log-fold titration. T4 levels were measured as described. All measured data were normalized to DMSO vehicle control.
Images are shown from representative donor lots. Values were normalized to the number of cells seeded per well. Significance was calculated in MiniTab (State College, PA) using either Student's t-test between 2 groups or One-way ANOVA with Tukey post hoc testing when comparing 3 groups or more to determine statistical significance with 95% confidence and *p<0.05 for statistical significance. GraphPad Prism v.9 was used to determine EC50 and EC90. Four-parameter nonlinear regression fit was used to determine the half-maximal inhibition concentration IC50 using GraphPad Prism v.9.
Established antagonists of thyroid hormone production were selected to determine the concentration-response profiles in 3D cultures for TDC screening purposes (FIG. 21).

[1] = test system: 3D thyrocyte cell culture; settings: 1.0×10^−10 to 1.0×10^−4 M
Method: After collecting media for T4 measurement, backing tape was put on the back of the 3D culture 96-well plate. 100 μL of a 1:1 mixture of CellTiter-Glo® Luminescent Cell Viability Assay (Promega, Madison, WI) and HTCM was added into each well of the 3D cell culture plate. The plate was covered and shaken for 2 minutes on an orbital plate shaker at 500 rpm followed by a 10 minute incubation in the dark without shaking. Luminescence reading was recorded using a CLARIOStar (BMG Labtech) microplate reader.

IC50 (T4 synthesis) | IC50 (T4 synthesis; Homo sapiens, 120 h) | SMILES | T3/T4 synthesis (T3/T4 synthesis) | effect on T4 levels (T4 synthesis) | toxicity of inhibitor concentrations to the cells [1]
767 nM | 659 nM | CCCc1cc(=O)[nH]c(=S)[nH]1 [6-propyl-2-thiouracil] | inhibited | consistent concentration-dependent decrease in T4 levels | not toxic to the cells with the exception of 6-propyl-2-thiouracil for 2021159 at the highest dose
– | – | Cn1cc[nH]c1=S [methimazole, Methimazole] | inhibited | consistent concentration-dependent decrease in T4 levels | –
